Assay results taken from the kinase profiling compilation of Christmann-Franck et al. (2016).
Values joined by “and” are separate entries in the source; they are usually repeats but may differ in a detail not shown here. Identical values can stand only once. One block for each molecule: values may come before it.

Tests used:
Assay in all cases: Caliper, Mobility shift assay off-chip
ALK (human) = ALK (human) (UniProt Q9UM73)
TAB1 (human) = TAB1 (human) (UniProt Q15750)
DAPK1 (human) = DAPK1 (human) (UniProt P53355)
CSK (human) = CSK (human) (UniProt P41240)
SGK3 (human) = SGK3 (human) (UniProt Q96BR1)
INSRR (human) = INSRR (human) (UniProt P14616)
CDK5 (human) = CDK5 (human) (UniProt Q00535)
CDK2 (human) = CDK2 (human) (UniProt P24941)
NEK9 (human) = NEK9 (human) (UniProt Q8TD19)
TAOK2 (human) = TAOK2 (human) (UniProt Q9UL54)
PAK2 (human) = PAK2 (human) (UniProt Q13177)
NEK1 (human) = NEK1 (human) (UniProt Q96PY6)
NEK6 (human) = NEK6 (human) (UniProt Q9HC98)
RPS6KA1 KD1 KD2 (human) = RPS6KA1 KD1 KD2 (human) (UniProt Q15418)
RPS6KA3 KD1 KD2 (human) = RPS6KA3 KD1 KD2 (human) (UniProt P51812)
PDPK1 (human) = PDPK1 (human) (UniProt O15530)
HIPK1 (human) = HIPK1 (human) (UniProt Q86Z02)
CAMK2B (human) = CAMK2B (human) (UniProt Q13554)
MAPK14 (human) = MAPK14 (human) (UniProt Q16539)
MAPKAPK2 (human) = MAPKAPK2 (human) (UniProt P49137)
CDK3 (human) = CDK3 (human) (UniProt Q00526)
CDK4 (human) = CDK4 (human) (UniProt P11802)
NTRK1 (human) = NTRK1 (human) (UniProt P04629)
ROCK2 (human) = ROCK2 (human) (UniProt O75116)
CAMK4 (human) = CAMK4 (human) (UniProt Q16566)
CSNK1G1 (human) = CSNK1G1 (human) (UniProt Q9HCP0)
ERBB4 (human) = ERBB4 (human) (UniProt Q15303)
CDC42BPB (human) = CDC42BPB (human) (UniProt Q9Y5S2)
MAPKAPK3 (human) = MAPKAPK3 (human) (UniProt Q16644)
PAK6 (human) = PAK6 (human) (UniProt Q9NQU5)
BRSK2 (human) = BRSK2 (human) (UniProt Q8IWQ3)
SIK1 (human) = SIK1 (human) (UniProt P57059)
TYK2 JH1 JH2 (human) = TYK2 JH1 JH2 (human) (UniProt P29597)
TSSK2 (human) = TSSK2 (human) (UniProt Q96PF2)

Chain of CSNK1G1 (human) (Q9HCP0 whole entry, looked up): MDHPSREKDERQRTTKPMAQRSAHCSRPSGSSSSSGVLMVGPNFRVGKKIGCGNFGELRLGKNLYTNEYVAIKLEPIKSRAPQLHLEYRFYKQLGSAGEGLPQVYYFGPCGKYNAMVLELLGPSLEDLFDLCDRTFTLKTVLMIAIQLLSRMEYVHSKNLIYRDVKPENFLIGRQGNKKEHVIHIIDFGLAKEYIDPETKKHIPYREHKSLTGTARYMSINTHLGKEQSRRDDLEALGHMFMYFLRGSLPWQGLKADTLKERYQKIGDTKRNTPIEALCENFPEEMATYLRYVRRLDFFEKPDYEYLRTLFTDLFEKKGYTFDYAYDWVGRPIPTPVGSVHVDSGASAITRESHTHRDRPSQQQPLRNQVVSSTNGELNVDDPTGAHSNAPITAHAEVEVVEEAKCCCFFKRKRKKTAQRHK
Chain of NEK1 (human) (Q96PY6 whole entry, looked up): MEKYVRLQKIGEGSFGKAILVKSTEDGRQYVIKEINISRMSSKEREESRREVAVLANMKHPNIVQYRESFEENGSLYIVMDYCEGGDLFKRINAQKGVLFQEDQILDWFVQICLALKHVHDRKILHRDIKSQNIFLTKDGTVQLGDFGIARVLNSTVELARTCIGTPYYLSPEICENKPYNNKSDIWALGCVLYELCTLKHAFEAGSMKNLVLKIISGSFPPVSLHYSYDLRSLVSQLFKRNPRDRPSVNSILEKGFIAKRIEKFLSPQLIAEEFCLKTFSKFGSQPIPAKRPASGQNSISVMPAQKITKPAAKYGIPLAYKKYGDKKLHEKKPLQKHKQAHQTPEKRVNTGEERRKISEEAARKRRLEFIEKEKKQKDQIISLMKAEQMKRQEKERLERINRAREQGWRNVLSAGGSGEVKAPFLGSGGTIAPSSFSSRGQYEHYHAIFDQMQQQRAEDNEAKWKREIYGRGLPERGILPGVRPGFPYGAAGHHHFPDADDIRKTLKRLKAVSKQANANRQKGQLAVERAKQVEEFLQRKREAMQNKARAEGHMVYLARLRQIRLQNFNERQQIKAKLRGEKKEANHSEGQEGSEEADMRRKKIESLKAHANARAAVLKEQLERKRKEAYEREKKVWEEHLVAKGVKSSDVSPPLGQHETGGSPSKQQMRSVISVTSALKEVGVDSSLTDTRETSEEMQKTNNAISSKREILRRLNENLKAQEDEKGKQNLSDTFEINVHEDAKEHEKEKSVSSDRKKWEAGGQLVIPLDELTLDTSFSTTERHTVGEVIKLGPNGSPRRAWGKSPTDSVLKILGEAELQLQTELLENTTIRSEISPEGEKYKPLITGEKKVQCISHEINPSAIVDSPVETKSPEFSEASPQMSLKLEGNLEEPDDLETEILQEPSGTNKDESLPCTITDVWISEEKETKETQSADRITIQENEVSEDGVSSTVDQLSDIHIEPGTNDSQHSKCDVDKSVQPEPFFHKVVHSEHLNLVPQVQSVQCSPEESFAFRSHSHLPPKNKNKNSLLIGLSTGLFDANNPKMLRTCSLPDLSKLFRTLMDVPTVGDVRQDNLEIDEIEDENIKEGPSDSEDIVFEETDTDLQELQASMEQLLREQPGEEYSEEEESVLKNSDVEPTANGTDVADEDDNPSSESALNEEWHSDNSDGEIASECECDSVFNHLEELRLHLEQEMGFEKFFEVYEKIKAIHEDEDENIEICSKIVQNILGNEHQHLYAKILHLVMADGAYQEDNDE
Chain of RPS6KA1 KD1 KD2 (human) (Q15418 whole entry, looked up): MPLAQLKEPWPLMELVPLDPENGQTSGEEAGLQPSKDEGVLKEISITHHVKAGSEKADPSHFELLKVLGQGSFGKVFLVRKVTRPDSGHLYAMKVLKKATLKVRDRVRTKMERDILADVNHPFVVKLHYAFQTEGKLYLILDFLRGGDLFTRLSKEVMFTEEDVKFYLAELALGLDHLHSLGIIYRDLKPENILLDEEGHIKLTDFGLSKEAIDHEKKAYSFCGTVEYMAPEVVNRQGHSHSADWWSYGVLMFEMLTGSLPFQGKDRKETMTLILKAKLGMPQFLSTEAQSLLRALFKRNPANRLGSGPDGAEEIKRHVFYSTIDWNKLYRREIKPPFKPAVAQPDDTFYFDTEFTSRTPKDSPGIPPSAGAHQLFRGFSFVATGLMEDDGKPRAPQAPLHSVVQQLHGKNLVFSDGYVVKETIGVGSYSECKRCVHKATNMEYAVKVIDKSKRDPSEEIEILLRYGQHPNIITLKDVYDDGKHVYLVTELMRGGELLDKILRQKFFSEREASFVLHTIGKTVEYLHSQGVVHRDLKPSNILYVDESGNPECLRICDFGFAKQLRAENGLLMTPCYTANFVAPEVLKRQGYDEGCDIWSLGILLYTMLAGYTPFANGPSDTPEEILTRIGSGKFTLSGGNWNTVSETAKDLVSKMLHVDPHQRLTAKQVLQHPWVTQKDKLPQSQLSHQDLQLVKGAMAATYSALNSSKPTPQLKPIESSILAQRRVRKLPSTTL
Chain of TYK2 JH1 JH2 (human) (P29597 whole entry, looked up): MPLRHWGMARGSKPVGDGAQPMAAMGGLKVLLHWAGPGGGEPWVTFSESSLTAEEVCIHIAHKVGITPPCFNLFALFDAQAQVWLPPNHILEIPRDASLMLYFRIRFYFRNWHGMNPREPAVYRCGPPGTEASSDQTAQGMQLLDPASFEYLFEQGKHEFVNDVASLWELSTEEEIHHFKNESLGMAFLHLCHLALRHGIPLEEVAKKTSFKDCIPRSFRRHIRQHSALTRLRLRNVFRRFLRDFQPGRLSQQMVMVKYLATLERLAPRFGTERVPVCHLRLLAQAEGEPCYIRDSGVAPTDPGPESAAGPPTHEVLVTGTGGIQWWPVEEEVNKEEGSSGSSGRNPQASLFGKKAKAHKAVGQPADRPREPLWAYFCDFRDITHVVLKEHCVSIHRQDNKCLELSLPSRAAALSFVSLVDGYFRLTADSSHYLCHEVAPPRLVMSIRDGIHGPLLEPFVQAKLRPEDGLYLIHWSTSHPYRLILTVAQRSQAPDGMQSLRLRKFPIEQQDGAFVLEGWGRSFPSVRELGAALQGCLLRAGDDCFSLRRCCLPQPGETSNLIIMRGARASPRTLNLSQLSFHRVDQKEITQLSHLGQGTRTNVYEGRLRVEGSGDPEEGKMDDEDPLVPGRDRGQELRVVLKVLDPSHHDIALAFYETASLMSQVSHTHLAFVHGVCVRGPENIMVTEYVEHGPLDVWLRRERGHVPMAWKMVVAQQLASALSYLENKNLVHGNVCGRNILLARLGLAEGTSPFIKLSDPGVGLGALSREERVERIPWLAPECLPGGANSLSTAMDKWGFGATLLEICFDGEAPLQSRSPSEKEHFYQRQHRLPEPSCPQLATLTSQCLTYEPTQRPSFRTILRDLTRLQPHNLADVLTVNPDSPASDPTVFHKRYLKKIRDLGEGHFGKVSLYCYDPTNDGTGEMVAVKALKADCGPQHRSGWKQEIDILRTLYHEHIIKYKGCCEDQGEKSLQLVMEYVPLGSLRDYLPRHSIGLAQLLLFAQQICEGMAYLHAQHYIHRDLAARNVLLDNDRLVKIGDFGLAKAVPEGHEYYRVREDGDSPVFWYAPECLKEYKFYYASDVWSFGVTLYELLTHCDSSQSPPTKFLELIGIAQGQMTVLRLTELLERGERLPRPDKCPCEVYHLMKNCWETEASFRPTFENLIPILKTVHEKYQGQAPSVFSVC
Chain of HIPK1 (human) (Q86Z02 whole entry, looked up): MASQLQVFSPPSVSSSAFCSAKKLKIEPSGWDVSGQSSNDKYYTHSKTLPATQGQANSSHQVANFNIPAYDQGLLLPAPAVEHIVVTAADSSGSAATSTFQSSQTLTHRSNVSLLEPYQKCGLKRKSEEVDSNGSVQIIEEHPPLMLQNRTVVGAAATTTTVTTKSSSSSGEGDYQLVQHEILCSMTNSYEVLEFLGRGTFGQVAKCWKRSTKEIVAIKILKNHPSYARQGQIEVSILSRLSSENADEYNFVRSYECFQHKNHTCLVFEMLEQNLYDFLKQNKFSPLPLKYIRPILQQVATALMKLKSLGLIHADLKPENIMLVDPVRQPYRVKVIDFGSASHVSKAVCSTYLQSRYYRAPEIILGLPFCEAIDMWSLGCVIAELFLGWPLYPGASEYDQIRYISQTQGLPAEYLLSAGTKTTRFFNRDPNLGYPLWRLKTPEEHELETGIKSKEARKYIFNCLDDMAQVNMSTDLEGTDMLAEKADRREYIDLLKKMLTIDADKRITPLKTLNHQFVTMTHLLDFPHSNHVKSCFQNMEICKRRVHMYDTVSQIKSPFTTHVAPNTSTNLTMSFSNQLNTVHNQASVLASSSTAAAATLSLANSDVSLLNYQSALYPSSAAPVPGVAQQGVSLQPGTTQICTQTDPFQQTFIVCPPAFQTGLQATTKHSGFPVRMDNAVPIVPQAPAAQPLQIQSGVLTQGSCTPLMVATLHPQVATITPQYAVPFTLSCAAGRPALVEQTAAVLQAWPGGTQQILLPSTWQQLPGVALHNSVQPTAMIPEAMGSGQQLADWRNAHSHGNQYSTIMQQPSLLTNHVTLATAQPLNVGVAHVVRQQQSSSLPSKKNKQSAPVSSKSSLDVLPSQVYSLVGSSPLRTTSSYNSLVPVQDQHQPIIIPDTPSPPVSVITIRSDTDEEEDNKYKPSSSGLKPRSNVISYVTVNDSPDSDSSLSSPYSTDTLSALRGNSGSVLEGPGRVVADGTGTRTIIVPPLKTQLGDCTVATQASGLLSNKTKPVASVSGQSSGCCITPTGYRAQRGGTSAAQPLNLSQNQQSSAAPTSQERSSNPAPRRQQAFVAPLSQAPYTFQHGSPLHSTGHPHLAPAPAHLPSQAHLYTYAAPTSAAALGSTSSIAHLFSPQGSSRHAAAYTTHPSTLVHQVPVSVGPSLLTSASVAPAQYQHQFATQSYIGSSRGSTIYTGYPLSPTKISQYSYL
Chain of CDK5 (human) (Q00535 whole entry, looked up): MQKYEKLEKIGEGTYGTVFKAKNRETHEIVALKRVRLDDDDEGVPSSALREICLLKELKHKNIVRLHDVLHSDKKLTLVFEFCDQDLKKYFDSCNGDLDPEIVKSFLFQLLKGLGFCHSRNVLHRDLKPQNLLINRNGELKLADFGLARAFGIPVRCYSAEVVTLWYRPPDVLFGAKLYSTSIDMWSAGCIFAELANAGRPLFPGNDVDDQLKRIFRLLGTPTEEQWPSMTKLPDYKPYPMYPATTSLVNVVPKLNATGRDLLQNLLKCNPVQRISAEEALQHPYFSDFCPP

inhibition (ALK (human); compound 0.02 µM): 5.8% | inhibition (ALK (human); compound 0.2 µM): 10.6% | inhibition (TAB1 (human); compound 0.02 µM): 5.3% | inhibition (TAB1 (human); compound 0.2 µM): 8.9% | inhibition (DAPK1 (human); compound 0.02 µM): -5.9% | inhibition (DAPK1 (human); compound 0.2 µM): 7.4% | inhibition (CSK (human); compound 0.02 µM): -6.7% | inhibition (CSK (human); compound 0.2 µM): -6.3% | inhibition (SGK3 (human); compound 0.02 µM): 8.5% | inhibition (SGK3 (human); compound 0.2 µM): 1.9% | inhibition (INSRR (human); compound 0.02 µM): -0.3% | inhibition (INSRR (human); compound 0.2 µM): 13.3% | inhibition (CDK5 (human); compound 0.02 µM): 0.8% | inhibition (CDK5 (human); compound 0.2 µM): -4.2% | inhibition (CDK2 (human); compound 0.02 µM): 1% and -0.2% | inhibition (CDK2 (human); compound 0.2 µM): -3% and -3.9% | inhibition (TAOK2 (human); compound 0.02 µM): 3.1% | inhibition (TAOK2 (human); compound 0.2 µM): 3.3% | inhibition (PAK2 (human); compound 0.02 µM): -4.1% | inhibition (PAK2 (human); compound 0.2 µM): 3.5% | inhibition (NEK1 (human); compound 0.02 µM): -5% | inhibition (NEK1 (human); compound 0.2 µM): -4.5% | inhibition (NEK6 (human); compound 0.02 µM): -4.2% | inhibition (NEK6 (human); compound 0.2 µM): -3.5% | inhibition (RPS6KA1 KD1 KD2 (human); compound 0.02 µM): -3.4% | inhibition (RPS6KA1 KD1 KD2 (human); compound 0.2 µM): -3.3% | inhibition (RPS6KA3 KD1 KD2 (human); compound 0.02 µM): 0.1% | inhibition (RPS6KA3 KD1 KD2 (human); compound 0.2 µM): -1.8% | inhibition (PDPK1 (human); compound 0.02 µM): -2.1% | inhibition (PDPK1 (human); compound 0.2 µM): -4.8% | inhibition (HIPK1 (human); compound 0.02 µM): -5.7% | inhibition (HIPK1 (human); compound 0.2 µM): -1% | inhibition (CAMK2B (human); compound 0.02 µM): -4.3% | inhibition (CAMK2B (human); compound 0.2 µM): -6% | inhibition (MAPK14 (human); compound 0.02 µM): -4.9% | inhibition (MAPK14 (human); compound 0.2 µM): -4.9% | inhibition (MAPKAPK2 (human); compound 0.02 µM): 6.1% | inhibition (MAPKAPK2 (human); compound 0.2 µM): -1.5% | inhibition (CDK3 (human); compound 0.02 µM): -3.3% | inhibition (CDK3 (human); compound 0.2 µM): -1.1% | inhibition (CDK4 (human); compound 0.02 µM): 2.7% | inhibition (CDK4 (human); compound 0.2 µM): 7.2% | inhibition (NTRK1 (human); compound 0.02 µM): 3.4% | inhibition (NTRK1 (human); compound 0.2 µM): 3.9% | inhibition (ROCK2 (human); compound 0.02 µM): -2.2% | inhibition (ROCK2 (human); compound 0.2 µM): -4.8% | inhibition (CAMK4 (human); compound 0.02 µM): -4% | inhibition (CAMK4 (human); compound 0.2 µM): -0.6% | inhibition (CSNK1G1 (human); compound 0.02 µM): -2% | inhibition (CSNK1G1 (human); compound 0.2 µM): -0.6% | inhibition (ERBB4 (human); compound 0.02 µM): 17.2% | inhibition (ERBB4 (human); compound 0.2 µM): 49.8% | inhibition (CDC42BPB (human); compound 0.02 µM): -8.9% | inhibition (CDC42BPB (human); compound 0.2 µM): 4.2% | inhibition (MAPKAPK3 (human); compound 0.02 µM): 1.1% | inhibition (MAPKAPK3 (human); compound 0.2 µM): -0.2% | inhibition (PAK6 (human); compound 0.02 µM): -2.2% | inhibition (PAK6 (human); compound 0.2 µM): -4.9% | inhibition (BRSK2 (human); compound 0.02 µM): -2.3% | inhibition (BRSK2 (human); compound 0.2 µM): 2.8% | inhibition (SIK1 (human); compound 0.02 µM): -3.3% | inhibition (SIK1 (human); compound 0.2 µM): -0.4% | inhibition (TYK2 JH1 JH2 (human); compound 0.02 µM): 4.8% | inhibition (TYK2 JH1 JH2 (human); compound 0.2 µM): 2.2% | inhibition (TSSK2 (human); compound 0.02 µM): -4.1% | inhibition (TSSK2 (human); compound 0.2 µM): -3.4%
SMILES: COc1cc2c(Oc3ccc4[nH]c(C)cc4c3F)ncnc2cc1OCCCN1CCCC1
inhibition (NEK9 (human); compound 0.02 µM): -3.3% | inhibition (NEK9 (human); compound 0.2 µM): -2.9%

inhibition (ALK (human); compound 0.02 µM): 10.1% | inhibition (ALK (human); compound 0.2 µM): 7.9% | inhibition (TAB1 (human); compound 0.02 µM): 6.5% | inhibition (TAB1 (human); compound 0.2 µM): 6% | inhibition (DAPK1 (human); compound 0.02 µM): 6.5% | inhibition (DAPK1 (human); compound 0.2 µM): 6.7% | inhibition (CSK (human); compound 0.02 µM): -4.8% | inhibition (CSK (human); compound 0.2 µM): -0.7% | inhibition (SGK3 (human); compound 0.02 µM): -0.2% | inhibition (SGK3 (human); compound 0.2 µM): -2.7% | inhibition (INSRR (human); compound 0.02 µM): 0.1% | inhibition (INSRR (human); compound 0.2 µM): 0.3% | inhibition (CDK5 (human); compound 0.02 µM): -0.3% | inhibition (CDK5 (human); compound 0.2 µM): 0.9% | inhibition (CDK2 (human); compound 0.02 µM): -0.1% and -1.7% | inhibition (CDK2 (human); compound 0.2 µM): -1.7% and -2.8% | inhibition (TAOK2 (human); compound 0.02 µM): 3.7% | inhibition (TAOK2 (human); compound 0.2 µM): 22.3% | inhibition (PAK2 (human); compound 0.02 µM): 5.5% | inhibition (PAK2 (human); compound 0.2 µM): 2% | inhibition (NEK1 (human); compound 0.02 µM): -4.7% | inhibition (NEK1 (human); compound 0.2 µM): 3.5% | inhibition (NEK6 (human); compound 0.02 µM): -4.8% | inhibition (NEK6 (human); compound 0.2 µM): -1.2% | inhibition (RPS6KA1 KD1 KD2 (human); compound 0.02 µM): 0.5% | inhibition (RPS6KA1 KD1 KD2 (human); compound 0.2 µM): 5.4% | inhibition (RPS6KA3 KD1 KD2 (human); compound 0.02 µM): 0.7% | inhibition (RPS6KA3 KD1 KD2 (human); compound 0.2 µM): 3.1% | inhibition (PDPK1 (human); compound 0.02 µM): -5% | inhibition (PDPK1 (human); compound 0.2 µM): -3.3% | inhibition (HIPK1 (human); compound 0.02 µM): 2.6% | inhibition (HIPK1 (human); compound 0.2 µM): 7.3% | inhibition (CAMK2B (human); compound 0.02 µM): -4.2% | inhibition (CAMK2B (human); compound 0.2 µM): -5.5% | inhibition (MAPK14 (human); compound 0.02 µM): -9% | inhibition (MAPK14 (human); compound 0.2 µM): -2.5% | inhibition (MAPKAPK2 (human); compound 0.02 µM): 5.5% | inhibition (MAPKAPK2 (human); compound 0.2 µM): 1.5% | inhibition (CDK3 (human); compound 0.02 µM): -2.4% | inhibition (CDK3 (human); compound 0.2 µM): -4.3% | inhibition (CDK4 (human); compound 0.2 µM): 13.2% | inhibition (NTRK1 (human); compound 0.02 µM): 7% | inhibition (NTRK1 (human); compound 0.2 µM): 16.7% | inhibition (ROCK2 (human); compound 0.02 µM): -3.7% | inhibition (ROCK2 (human); compound 0.2 µM): -1.3% | inhibition (CAMK4 (human); compound 0.02 µM): -2.8% | inhibition (CAMK4 (human); compound 0.2 µM): -1.2% | inhibition (CSNK1G1 (human); compound 0.02 µM): -0.9% | inhibition (CSNK1G1 (human); compound 0.2 µM): -1% | inhibition (ERBB4 (human); compound 0.02 µM): 8.4% | inhibition (ERBB4 (human); compound 0.2 µM): 2.6% | inhibition (CDC42BPB (human); compound 0.02 µM): 1.8% | inhibition (CDC42BPB (human); compound 0.2 µM): 2.9% | inhibition (MAPKAPK3 (human); compound 0.02 µM): 2.3% | inhibition (MAPKAPK3 (human); compound 0.2 µM): 1.6% | inhibition (PAK6 (human); compound 0.02 µM): -5.8% | inhibition (PAK6 (human); compound 0.2 µM): -5.8% | inhibition (BRSK2 (human); compound 0.02 µM): -2.2% | inhibition (BRSK2 (human); compound 0.2 µM): 0.4% | inhibition (SIK1 (human); compound 0.02 µM): -3% | inhibition (SIK1 (human); compound 0.2 µM): 0% | inhibition (TYK2 JH1 JH2 (human); compound 0.02 µM): 3.7% | inhibition (TYK2 JH1 JH2 (human); compound 0.2 µM): 7.2% | inhibition (TSSK2 (human); compound 0.02 µM): -4.3% | inhibition (TSSK2 (human); compound 0.2 µM): -2.4%
SMILES: Cc1ccc(Nc2nccc(N(C)c3ccc4c(C)n(C)nc4c3)n2)cc1S(N)(=O)=O
inhibition (NEK9 (human); compound 0.02 µM): -3.7% | inhibition (NEK9 (human); compound 0.2 µM): 1.4%
